Experimental data reported in patent US20260365670A1, “EGFR INHIBITORS AND USES THEREOF” (DIZAL (JIANGSU) PHARMACEUTICAL CO., LTD., priority 2022, published 2026).
Read-outs that look alike come from different tables or passages of the source.

What was measured:
PC-9 = experiment: Cell proliferation assay, PC-9 cells (CellTiter-Glo, 72 hours); format: cell-based; settings: PC9 cells
Experimental: (§1) Biological Example 2: Cell Proliferation Assays
(§2) Ba/F3 cells expressing EGFR mutations were seeded in 384-well plates at 5000 cells/well in RPMI1640 medium containing […]. PC-9 at 500 cells/well was seeded into 384-well plates in RPMI1640 medium with 10% FBS. After overnight incubation, the assay plates were dosed with compounds at a series of concentrations. Alongside dosing the assay plates, the day 0 plate was processed using CellTiter-Glo® Luminescent Cell Viability Assay (Promega) to measure the number of viable cells (G0). The assay plates were further incubated for 72 hours and the number of viable cells (G3) was measured. The percentage of proliferation was calculated as: […]=100×(G3 value of sample well−G0 value)/(G3 value of DMSO control−G0 value). The concentration of compound producing 50% proliferation inhibition (GI50) was further calculated in best-fit curves using XLFit software. N/A=not available.

EGFR wild type = biological target: T1, EGFR wild type (Homo sapiens, UniProt P00533); experiment: Inhibition of EGFR wild type biochemical enzymatic activity (HTRF); settings: 1 mM ATP
T1 construct: purchased Carna Bio
T1 sequence (P00533 25-1210): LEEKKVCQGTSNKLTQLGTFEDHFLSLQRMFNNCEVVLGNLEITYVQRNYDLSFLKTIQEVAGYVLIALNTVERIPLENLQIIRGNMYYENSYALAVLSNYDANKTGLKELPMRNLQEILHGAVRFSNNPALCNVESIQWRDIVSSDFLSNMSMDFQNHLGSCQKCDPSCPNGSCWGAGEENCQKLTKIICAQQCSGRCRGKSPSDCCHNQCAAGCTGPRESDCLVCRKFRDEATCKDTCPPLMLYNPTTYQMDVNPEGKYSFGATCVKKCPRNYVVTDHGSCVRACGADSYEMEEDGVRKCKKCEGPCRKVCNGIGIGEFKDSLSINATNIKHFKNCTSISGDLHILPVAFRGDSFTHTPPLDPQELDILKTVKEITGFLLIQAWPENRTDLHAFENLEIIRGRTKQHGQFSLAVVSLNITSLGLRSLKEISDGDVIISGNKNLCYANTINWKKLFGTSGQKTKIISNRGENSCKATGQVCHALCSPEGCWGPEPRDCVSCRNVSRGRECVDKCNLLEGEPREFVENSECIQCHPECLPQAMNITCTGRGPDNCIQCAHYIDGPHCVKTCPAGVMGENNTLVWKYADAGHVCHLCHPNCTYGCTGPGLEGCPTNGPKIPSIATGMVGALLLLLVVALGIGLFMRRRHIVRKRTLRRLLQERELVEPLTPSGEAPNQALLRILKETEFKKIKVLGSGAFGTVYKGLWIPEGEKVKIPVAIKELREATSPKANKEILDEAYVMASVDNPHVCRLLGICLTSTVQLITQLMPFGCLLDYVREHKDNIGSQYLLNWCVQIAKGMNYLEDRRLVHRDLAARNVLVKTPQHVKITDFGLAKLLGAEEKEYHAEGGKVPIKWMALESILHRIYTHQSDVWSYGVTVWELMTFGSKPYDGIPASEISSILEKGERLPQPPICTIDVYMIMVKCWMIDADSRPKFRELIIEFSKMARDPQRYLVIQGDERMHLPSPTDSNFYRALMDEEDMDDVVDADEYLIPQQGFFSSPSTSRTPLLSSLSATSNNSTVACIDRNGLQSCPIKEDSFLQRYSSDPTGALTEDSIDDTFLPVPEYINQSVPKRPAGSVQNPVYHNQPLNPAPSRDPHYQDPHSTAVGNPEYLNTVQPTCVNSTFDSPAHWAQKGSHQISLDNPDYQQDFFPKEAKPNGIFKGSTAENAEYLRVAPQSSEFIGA
Experimental: (§3) Biological Example 1: Inhibition of EGFR WT and Mutant Biochemical Enzymatic Activity
(§4) The inhibition potency of compounds against these enzymes was assessed using Homogenous Time Resolved Fluorescence approach (HTRF, CisBio. Cat No. 62TKOPEJ).
(§5) Inhibitory effects of the compounds were determined by measuring the enzymatic activity of EGFR enzyme phosphorylates 1 μM TK Substrate-biotin in the presence of 1 mM adenosine-5′-triphosphate (ATP) and varying concentrations of the test compound. The enzyme reaction buffer contains 5 mM MgCl2, 1 mM MnC12, 0.01% CHAPS, 1 mM dithiothreitol (DTT), 0.5% dimethylsulfoxide (DMSO), and 1× supplemented enzymatic buffer. The WT and mutant EGFR enzymes (SignalChem) were added to plates containing inhibitors, followed by activation of the kinase reaction by addition of ATP and peptide substrates. After incubation for 1 h at room temperature, the reaction was stopped by the addition of the detection reagent mix containing EDTA. The fluorescence was measured at 615 nm and 665 nm, respectively with excitation wavelength at 320 nm. The calculated signal ratio of 665 nm/615 nm is proportional to the kinase activity. The concentration of compound producing 50% inhibition of the respective kinase (IC50) was calculated using four-parameter logistic fit with XL-FIT.

EGFR (d746-750 C797S) = biological target: T2, EGFR (d746-750 C797S) (Homo sapiens, UniProt P00533, C797S/DEL746-750); experiment: Inhibition of EGFR (d746-750 C797S) biochemical enzymatic activity (HTRF); settings: 1 mM ATP
T2 construct: purchased signalchem
T2 sequence (P00533 with tags, fused parts or gaps DEL746-750/C797S limits assumed): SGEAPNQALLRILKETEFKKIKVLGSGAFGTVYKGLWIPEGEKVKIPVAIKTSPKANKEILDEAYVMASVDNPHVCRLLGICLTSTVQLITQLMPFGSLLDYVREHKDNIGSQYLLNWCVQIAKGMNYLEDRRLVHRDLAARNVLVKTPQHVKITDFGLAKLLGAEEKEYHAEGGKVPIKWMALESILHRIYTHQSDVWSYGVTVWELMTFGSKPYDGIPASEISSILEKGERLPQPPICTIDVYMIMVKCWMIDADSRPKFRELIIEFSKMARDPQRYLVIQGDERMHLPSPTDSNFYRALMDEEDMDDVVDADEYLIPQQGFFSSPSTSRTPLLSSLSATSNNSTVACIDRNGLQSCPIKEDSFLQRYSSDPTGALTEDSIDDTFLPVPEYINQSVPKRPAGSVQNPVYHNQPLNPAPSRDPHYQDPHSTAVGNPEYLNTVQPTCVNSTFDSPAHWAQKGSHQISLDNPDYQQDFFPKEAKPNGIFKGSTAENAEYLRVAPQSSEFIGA
Experimental: as §3, §4, §5

EGFR Exon19Del = biological target: T3, EGFR Exon19Del (Homo sapiens, UniProt P00533, DEL746-750); experiment: Inhibition of EGFR Exon19Del biochemical enzymatic activity (HTRF); settings: read-out: IC50 @Del19
T3 construct: purchased Carna Bio
T3 sequence (P00533 with tags, fused parts or gaps DEL746-750 limits assumed): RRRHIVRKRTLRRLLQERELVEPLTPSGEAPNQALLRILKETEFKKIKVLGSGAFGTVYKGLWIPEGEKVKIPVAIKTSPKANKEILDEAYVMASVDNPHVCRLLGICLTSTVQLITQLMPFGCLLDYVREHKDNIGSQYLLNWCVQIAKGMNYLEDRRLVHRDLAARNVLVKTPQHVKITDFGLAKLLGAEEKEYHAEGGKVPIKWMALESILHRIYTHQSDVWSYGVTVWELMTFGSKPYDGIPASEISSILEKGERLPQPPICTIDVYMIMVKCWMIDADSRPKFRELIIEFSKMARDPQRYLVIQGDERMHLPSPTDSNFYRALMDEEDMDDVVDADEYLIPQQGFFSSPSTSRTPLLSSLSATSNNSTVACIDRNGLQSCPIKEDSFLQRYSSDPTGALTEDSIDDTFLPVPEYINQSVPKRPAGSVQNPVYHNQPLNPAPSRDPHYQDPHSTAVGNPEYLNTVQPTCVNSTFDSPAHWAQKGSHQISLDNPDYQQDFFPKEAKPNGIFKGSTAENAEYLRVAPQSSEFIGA
Experimental: as §3, §4, §5

[1] = tested on: Ba/F3 cells expressing EGFR mutations; experiment: Cell proliferation assay, Ba/F3 cells expressing EGFR mutations (CellTiter-Glo, 72 hours); format: cell-based
Experimental: as §1, §2

[2] = biological target: T4, EGFR[T790M/C797S/d746-750] (Homo sapiens, UniProt P00533, C797S/DEL746-750/T790M); experiment: Inhibition of EGFR[T790M/C797S/d746-750] biochemical enzymatic activity (HTRF)
T4 construct: purchased Carna Bio
T4 sequence (P00533 with tags, fused parts or gaps DEL746-750/T790M/C797S limits assumed): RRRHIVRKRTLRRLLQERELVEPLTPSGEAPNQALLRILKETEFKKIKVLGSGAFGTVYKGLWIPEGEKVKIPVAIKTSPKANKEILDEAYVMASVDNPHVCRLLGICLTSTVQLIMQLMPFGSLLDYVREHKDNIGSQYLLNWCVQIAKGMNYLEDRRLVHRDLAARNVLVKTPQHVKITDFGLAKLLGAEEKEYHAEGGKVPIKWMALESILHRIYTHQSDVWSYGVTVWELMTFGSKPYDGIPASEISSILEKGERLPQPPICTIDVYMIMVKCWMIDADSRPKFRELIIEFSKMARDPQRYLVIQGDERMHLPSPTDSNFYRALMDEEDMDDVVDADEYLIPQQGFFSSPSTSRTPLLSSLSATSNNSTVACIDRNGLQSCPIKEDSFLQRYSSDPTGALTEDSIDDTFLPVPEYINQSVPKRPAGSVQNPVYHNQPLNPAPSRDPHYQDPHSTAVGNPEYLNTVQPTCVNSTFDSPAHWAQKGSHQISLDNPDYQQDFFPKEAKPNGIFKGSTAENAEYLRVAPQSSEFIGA
Experimental: as §3, §4, §5

EGFR (C797S L858R) = biological target: T5, EGFR (C797S L858R) (Homo sapiens, UniProt P00533, C797S/L858R); experiment: Inhibition of EGFR (C797S L858R) biochemical enzymatic activity (HTRF); settings: 1 mM ATP
T5 construct: purchased signalchem
T5 sequence (P00533 25-1210 C797S/L858R): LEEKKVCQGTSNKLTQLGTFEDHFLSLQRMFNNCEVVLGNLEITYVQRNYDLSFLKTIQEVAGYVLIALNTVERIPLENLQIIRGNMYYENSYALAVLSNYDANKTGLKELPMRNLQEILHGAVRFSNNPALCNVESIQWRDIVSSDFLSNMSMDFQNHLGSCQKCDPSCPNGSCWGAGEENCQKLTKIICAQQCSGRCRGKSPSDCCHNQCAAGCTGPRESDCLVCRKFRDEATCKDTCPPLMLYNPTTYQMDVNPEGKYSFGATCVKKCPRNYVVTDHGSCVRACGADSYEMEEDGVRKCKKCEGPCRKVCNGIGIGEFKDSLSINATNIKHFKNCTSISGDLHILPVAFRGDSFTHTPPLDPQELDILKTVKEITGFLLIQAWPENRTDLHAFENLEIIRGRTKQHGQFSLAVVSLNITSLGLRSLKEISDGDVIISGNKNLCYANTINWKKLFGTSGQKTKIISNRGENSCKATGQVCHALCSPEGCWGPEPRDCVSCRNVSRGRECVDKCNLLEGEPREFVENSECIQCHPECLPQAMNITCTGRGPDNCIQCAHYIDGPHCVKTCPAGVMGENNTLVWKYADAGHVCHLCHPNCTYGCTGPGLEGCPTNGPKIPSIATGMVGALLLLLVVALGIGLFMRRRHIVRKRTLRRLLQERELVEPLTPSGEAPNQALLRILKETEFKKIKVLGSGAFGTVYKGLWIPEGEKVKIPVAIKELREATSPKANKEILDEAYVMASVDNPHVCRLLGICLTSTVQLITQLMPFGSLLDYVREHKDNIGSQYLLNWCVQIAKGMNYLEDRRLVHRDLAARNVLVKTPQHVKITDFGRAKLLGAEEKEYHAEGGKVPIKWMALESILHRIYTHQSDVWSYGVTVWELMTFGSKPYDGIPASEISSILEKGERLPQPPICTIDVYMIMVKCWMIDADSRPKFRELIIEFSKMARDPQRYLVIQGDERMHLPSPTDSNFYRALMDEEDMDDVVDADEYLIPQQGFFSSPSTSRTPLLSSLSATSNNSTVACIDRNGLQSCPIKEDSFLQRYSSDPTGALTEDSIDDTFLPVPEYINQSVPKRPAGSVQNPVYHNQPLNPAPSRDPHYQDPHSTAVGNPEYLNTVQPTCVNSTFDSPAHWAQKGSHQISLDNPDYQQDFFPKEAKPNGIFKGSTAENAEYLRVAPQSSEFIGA
Experimental: as §3, §4, §5

EGFR Exon19Del/T790M = biological target: T6, EGFR Exon19Del/T790M (Homo sapiens, UniProt P00533, DEL746-750/T790M); experiment: Inhibition of EGFR Exon19Del/T790M biochemical enzymatic activity (HTRF); settings: 1 mM ATP
T6 construct: purchased Carna Bio
T6 sequence (P00533 with tags, fused parts or gaps DEL746-750/T790M limits assumed): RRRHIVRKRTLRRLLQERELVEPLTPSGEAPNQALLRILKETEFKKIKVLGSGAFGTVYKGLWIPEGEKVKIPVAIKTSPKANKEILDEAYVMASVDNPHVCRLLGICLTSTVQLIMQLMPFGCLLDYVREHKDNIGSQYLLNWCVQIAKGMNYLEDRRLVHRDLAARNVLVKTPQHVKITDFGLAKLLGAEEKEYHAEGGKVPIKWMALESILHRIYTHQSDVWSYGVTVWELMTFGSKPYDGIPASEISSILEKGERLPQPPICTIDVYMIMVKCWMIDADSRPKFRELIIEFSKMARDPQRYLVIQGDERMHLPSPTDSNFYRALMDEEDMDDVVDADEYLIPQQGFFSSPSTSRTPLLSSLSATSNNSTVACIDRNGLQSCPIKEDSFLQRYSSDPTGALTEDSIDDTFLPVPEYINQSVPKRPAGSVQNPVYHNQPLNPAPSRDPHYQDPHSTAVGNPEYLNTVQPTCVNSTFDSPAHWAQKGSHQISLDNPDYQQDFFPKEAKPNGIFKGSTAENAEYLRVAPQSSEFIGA
Experimental: as §3, §4, §5

EGFR L858R/T790M = biological target: T7, EGFR L858R/T790M (Homo sapiens, UniProt P00533, L858R/T790M); experiment: Inhibition of EGFR L858R/T790M biochemical enzymatic activity (HTRF); settings: 1 mM ATP
T7 construct: purchased Carna Bio
Experimental: as §3, §4, §5

EGFR[T790M/C797S/L858R] = biological target: T8, EGFR[T790M/C797S/L858R] (Homo sapiens, UniProt P00533, C797S/L858R/T790M); experiment: Inhibition of EGFR[T790M/C797S/L858R] biochemical enzymatic activity (HTRF); settings: 1 mM ATP
T8 construct: purchased Carna Bio
Experimental: as §3, §4, §5

EGFR L858R = biological target: T9, EGFR L858R (Homo sapiens, UniProt P00533, L858R); experiment: Inhibition of EGFR L858R biochemical enzymatic activity (HTRF); settings: 1 mM ATP
T9 construct: purchased Carna Bio
Experimental: as §3, §4, §5

For `Cc1cc2cc(n1)-c1cnn(C)c1OCCN1CC3CCC(C3)(C1)n1c(nc3ccc(N4CCC5(CCN(C)CC5)C4)cc31)NC2=O` (single isomer, unassigned) [Example B51A], the GI50 (PC-9; read-out: GI50 PC9) was 3020 nM, the IC50 (EGFR wild type; EGFR wild type, 1 h at room temperature, read-out: IC50 @WT) was over 5000 nM and the IC50 (EGFR (d746-750 C797S); EGFR (d746-750 C797S), 1 h at room temperature, read-out: IC50 @Del19-C797S) was over 5000 nM. For the same compound, the IC50 (EGFR Exon19Del; EGFR Exon19Del, 1 mM ATP, 1 h at room temperature) was over 5000 nM, the GI50 ([1]; BaF3 cells, EGFR DEL19 - C797S, read-out: GI50 DEL19 - C797S/BaF3) was 357 nM and the GI50 ([1]; BaF3 cells, EGFR DEL19 - T790-C797S, read-out: GI50 DEL19 - T790-C797S/BaF3) was 615 nM. The GI50 ([1]; BaF3 cells, EGFR L858R - C797S, read-out: GI50 L858R - C797S/BaF3) was 1080 nM, the GI50 ([1]; BaF3 cells, EGFR L858R - T790-C797S, read-out: GI50 L858R - T790-C797S/BaF3) was 124 nM and the GI50 ([1]; BaF3 cells, EGFR L858R - T790M, read-out: GI50 L858R - T790M/BaF3) was 383 nM. The GI50 ([1]; BaF3 cells, EGFR L858R, read-out: GI50 L858R/BaF3) was 2850 nM, the GI50 ([1]; EGFR DEL19 - T790M, read-out: GI50 DEL19 - T790M) was 530 nM and the IC50 ([2]; EGFR[T790M/C797S/d746-750], 1 mM ATP, 1 h at room temperature, read-out: IC50 @T790M - C797S - Del19) was 1100 nM. It also gave an IC50 (EGFR (C797S L858R); EGFR (C797S L858R), 1 h at room temperature, read-out: IC50 @L858-C797S) of over 5000 nM, an IC50 (EGFR Exon19Del/T790M; EGFR Exon19Del/T790M, 1 h at room temperature, read-out: IC50 @Del19-T790M) of 3370 nM and an IC50 (EGFR L858R/T790M; EGFR L858R/T790M, 1 h at room temperature, read-out: IC50 @L858R-T790M) of over 5000 nM. The IC50 (EGFR[T790M/C797S/L858R]; EGFR[T790M/C797S/L858R], 1 h at room temperature, read-out: IC50 @T790M- C797S - L858R) was over 5000 nM and the IC50 (EGFR L858R; 1 h at room temperature, read-out: IC50 @L858R) was over 5000 nM.
With `CN1CCC2CN(c3ccc4nc5n(c4c3)C34CCC(CN(CCOc6c(cnn6C)-c6cc(cn(C)c6=O)C(=O)N5)C3)C4)CC21` (single isomer, unassigned) [Example A79A] the GI50 (PC-9; CellTiter-Glo, read-out: PC9 GI50) was 993 nM, the IC50 (EGFR wild type; EGFR WT, 1 h, room temperature, read-out: IC50 (nM) @WT) was over 5000 nM and the IC50 (EGFR (d746-750 C797S); EGFR Del19-C797S, 1 h, room temperature, read-out: IC50 (nM) @Del19-C797S) was 1580 nM. It also gave an IC50 (EGFR Exon19Del; EGFR Del19, 1 mM ATP, 1 h, room temperature) of 1430 nM, a GI50 ([1]; BaF3 cells, EGFR DEL19-C797S, CellTiter-Glo, read-out: DEL19-C797S/BaF3 GI50) of 251 nM and a GI50 ([1]; BaF3 cells, EGFR DEL19-T790-C797S, CellTiter-Glo, read-out: DEL19-T790-C797S/BaF3 GI50) of 999 nM. For the same compound, the GI50 ([1]; BaF3 cells, EGFR L858R, CellTiter-Glo, read-out: L858R/BaF3 GI50) was 990 nM, the GI50 ([1]; BaF3 cells, EGFR L858R-C797S, CellTiter-Glo, read-out: L858R-C797S/BaF3 GI50) was 360 nM and the GI50 ([1]; BaF3 cells, EGFR L858R-T790-C797S, CellTiter-Glo, read-out: L858R-T790-C797S/BaF3 GI50) was 1910 nM. The GI50 ([1]; BaF3 cells, EGFR L858R-T790M, CellTiter-Glo, read-out: L858R-T790M/BaF3 GI50) was 1120 nM, the GI50 ([1]; EGFR DEL19-T790M, CellTiter-Glo, read-out: DEL19-T790M GI50) was 882 nM and the IC50 ([2]; EGFR T790M-C797S-Del19, 1 mM ATP, 1 h, room temperature, read-out: IC50 (nM) @T790M - C797S - Del19) was over 5000 nM. The IC50 (EGFR (C797S L858R); EGFR L858-C797S, 1 h, room temperature, read-out: IC50 (nM) @L858-C797S) was over 5000 nM, the IC50 (EGFR Exon19Del/T790M; EGFR Del19-T790M, 1 h, room temperature, read-out: IC50 (nM) @Del19-T790M) was over 5000 nM and the IC50 (EGFR L858R/T790M; EGFR L858R-T790M, 1 h, room temperature, read-out: IC50 (nM) @L858R-T790M) was over 5000 nM. For the same compound, the IC50 (EGFR[T790M/C797S/L858R]; EGFR T790M-C797S-L858R, 1 h, room temperature, read-out: IC50 (nM) @T790M- C797S - L858R) was over 5000 nM and the IC50 (EGFR L858R; 1 h, room temperature, read-out: IC50 (nM) @L858R) was over 5000 nM.
